Results taken from patent US10392368B2, “Pyrazolo and triazolo bicyclic compounds as JAK kinase inhibitors” (THERAVANCE BIOPHARMA R&D IP, LLC, priority 2017, dated 2019).

Legend:
[1] = target: T1, JAK1 (Homo sapiens, UniProt P23458); assay: Biochemical JAK1 kinase assay (LanthaScreen); conditions: for Ki: read-out: JAK 1 (pKi) (converted)
T1 construct: GST; purchased Life Technologies
Procedure, shortened: (§1)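 GST-tagged JAK enzyme and GFP-STAT1 peptide preincubated with compound 1 h, then ATP added; 1 h kinase reaction at ambient temperature, pH 7.5 HEPES/MgCl2 buffer, 1% DMSO. Tb-anti-pSTAT1 (pTyr701) TR-FRET, 520/495 nm ratio; IC50 from 4-parameter fit, converted to pKi via Cheng-Prusoff.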

[2] = target: T2, JAK2 (Homo sapiens, UniProt O60674); assay: Biochemical JAK2 kinase assay (LanthaScreen); conditions: for Ki: read-out: JAK 2 (pKi) (converted)
T2 construct: GST; purchased Life Technologies
T2 sequence (O60674 whole entry): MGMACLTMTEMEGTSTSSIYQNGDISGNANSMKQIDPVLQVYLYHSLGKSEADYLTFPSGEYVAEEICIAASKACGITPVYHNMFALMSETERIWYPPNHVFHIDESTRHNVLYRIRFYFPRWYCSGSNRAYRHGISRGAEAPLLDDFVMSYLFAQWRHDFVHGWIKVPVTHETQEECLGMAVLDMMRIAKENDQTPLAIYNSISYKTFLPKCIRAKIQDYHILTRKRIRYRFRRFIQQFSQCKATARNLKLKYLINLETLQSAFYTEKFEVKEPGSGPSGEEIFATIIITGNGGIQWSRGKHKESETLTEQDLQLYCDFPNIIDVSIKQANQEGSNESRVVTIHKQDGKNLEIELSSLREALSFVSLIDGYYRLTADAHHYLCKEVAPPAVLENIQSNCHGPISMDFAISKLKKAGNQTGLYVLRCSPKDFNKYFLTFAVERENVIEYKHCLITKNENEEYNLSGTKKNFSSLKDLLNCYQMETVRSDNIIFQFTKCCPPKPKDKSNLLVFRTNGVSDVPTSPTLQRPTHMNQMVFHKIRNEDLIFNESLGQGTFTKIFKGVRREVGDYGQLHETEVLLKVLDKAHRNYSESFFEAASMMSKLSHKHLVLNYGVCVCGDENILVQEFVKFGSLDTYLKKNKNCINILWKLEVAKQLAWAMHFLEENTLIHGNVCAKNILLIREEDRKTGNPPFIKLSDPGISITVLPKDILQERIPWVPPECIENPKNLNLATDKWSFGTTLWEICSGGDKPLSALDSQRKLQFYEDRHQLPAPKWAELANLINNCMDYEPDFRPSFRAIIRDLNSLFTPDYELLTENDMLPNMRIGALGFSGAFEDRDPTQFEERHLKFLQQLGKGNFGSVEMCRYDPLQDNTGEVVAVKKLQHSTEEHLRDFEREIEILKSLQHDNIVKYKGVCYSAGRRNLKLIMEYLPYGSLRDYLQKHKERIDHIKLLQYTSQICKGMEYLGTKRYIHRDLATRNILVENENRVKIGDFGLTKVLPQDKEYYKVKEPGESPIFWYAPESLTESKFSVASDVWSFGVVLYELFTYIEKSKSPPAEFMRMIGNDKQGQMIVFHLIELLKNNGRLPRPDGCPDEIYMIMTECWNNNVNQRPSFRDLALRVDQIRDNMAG
Procedure, shortened: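 GST-tagged recombinant JAK2 pre-incubated 1 h at ambient temperature with compound and GFP-STAT1 peptide in HEPES pH 7.5/MgCl2 buffer, then ATP added for a 1 h reaction with 1% DMSO. TR-FRET read after EDTA and Tb-anti-pSTAT1 (pTyr701) addition; IC50 from 4-parameter fit, converted to pKi by Cheng-Prusoff.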

[3] = target: T3, Tyk2 (Homo sapiens, UniProt P29597); assay: Biochemical Tyk2 kinase assay (LanthaScreen); conditions: for Ki: read-out: Tyk 2 (pKi) (converted)
T3 construct: GST; purchased Life Technologies
T3 sequence (P29597 whole entry): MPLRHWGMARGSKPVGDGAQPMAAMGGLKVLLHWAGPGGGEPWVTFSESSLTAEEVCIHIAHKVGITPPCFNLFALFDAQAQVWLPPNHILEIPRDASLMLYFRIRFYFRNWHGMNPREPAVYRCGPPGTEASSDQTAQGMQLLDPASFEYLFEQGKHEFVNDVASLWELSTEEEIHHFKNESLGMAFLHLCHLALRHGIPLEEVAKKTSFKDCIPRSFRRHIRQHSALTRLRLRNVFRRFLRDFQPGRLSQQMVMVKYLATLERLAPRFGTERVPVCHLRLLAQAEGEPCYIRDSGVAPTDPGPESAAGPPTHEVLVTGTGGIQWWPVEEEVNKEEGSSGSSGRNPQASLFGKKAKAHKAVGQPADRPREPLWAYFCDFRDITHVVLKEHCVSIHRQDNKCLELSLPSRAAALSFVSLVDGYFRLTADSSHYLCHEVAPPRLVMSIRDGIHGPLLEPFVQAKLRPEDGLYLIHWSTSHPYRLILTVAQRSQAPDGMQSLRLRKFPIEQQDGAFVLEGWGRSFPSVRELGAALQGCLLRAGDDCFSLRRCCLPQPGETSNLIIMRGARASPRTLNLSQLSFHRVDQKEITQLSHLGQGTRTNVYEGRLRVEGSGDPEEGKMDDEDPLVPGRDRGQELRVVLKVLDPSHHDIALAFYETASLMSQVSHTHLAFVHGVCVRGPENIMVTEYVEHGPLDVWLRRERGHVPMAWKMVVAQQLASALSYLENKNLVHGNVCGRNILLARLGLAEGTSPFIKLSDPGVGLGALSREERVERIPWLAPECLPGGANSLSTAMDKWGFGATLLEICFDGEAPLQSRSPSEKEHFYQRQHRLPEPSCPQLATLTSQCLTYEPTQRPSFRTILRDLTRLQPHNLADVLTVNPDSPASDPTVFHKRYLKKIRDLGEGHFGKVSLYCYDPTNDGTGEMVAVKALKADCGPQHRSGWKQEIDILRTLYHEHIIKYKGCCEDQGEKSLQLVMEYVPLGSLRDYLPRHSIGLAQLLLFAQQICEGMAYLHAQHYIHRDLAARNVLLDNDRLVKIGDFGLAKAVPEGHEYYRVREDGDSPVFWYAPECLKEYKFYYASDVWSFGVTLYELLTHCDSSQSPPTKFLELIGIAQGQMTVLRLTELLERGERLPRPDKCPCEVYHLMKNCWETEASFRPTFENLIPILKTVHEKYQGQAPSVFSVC
Procedure, shortened: as §1

[4] = tested on: IL-2 stimulated pSTAT5 in Tall-1 T cells; assay: Cellular JAK3 potency assay: inhibition of IL-2 stimulated pSTAT5 in Tall-1 T cells; type: cell-based, human; conditions: for Tall-1 (pIC50): IL-2 stimulated pSTAT5 in Tall-1 T cells; for IC50: Homo sapiens, TALL-1, IL-2 stimulated pSTAT5 in Tall-1 T cells, read-out: Tall-1 (pIC50) (converted)
Procedure, shortened: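 Tall-1 human T cells (45,000/well) in phenol red-free DMEM with 10% FBS were preincubated with compound 1 h at 37 °C, then stimulated with IL-2 (final 300 ng/ml) for 30 min. Lysate pSTAT5 read by AlphaLisa; IC50 from inhibition curves, reported as pIC50 (mean±SD).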

[5] = target: T4, JAK3 (Homo sapiens, UniProt P52333); assay: Biochemical JAK3 kinase assay (LanthaScreen); set-up: GST; purchased Life Technologies; conditions: for JAK3 (pKi)-JAK1 (pKi): selectivity: difference of pKi JAK3 and pKi JAK1; for Ki: read-out: JAK 3 (pKi) (converted)
T4 sequence (P52333 1-1124): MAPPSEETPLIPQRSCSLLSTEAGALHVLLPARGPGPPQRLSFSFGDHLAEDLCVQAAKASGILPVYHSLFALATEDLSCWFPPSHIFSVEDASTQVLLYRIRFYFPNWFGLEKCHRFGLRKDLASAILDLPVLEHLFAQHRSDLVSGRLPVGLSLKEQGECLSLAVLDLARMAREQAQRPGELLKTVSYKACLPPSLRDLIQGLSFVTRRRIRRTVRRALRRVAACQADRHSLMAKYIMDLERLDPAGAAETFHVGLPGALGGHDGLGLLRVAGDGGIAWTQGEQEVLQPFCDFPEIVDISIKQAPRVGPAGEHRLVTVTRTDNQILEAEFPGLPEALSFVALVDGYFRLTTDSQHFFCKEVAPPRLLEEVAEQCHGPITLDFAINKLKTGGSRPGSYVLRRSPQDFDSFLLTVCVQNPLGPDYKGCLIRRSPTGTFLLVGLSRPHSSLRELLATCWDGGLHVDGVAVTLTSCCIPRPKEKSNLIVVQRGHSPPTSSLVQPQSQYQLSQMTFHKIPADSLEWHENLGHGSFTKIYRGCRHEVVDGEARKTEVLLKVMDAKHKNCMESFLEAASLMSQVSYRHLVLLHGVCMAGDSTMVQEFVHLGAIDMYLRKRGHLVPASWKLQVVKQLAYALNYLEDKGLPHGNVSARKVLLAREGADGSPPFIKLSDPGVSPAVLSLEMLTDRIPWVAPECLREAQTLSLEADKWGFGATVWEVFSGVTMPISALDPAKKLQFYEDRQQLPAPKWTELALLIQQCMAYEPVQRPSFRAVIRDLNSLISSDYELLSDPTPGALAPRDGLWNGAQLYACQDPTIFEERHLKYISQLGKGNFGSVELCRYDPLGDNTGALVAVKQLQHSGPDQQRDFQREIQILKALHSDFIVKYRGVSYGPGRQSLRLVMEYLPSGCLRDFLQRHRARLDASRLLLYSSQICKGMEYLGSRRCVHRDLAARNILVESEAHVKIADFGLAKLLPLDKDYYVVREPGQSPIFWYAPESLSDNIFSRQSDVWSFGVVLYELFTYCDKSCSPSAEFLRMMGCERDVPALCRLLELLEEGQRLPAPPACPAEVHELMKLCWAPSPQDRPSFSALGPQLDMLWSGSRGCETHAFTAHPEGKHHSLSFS
Procedure, shortened: as §1

T1 sequence (P23458 whole entry): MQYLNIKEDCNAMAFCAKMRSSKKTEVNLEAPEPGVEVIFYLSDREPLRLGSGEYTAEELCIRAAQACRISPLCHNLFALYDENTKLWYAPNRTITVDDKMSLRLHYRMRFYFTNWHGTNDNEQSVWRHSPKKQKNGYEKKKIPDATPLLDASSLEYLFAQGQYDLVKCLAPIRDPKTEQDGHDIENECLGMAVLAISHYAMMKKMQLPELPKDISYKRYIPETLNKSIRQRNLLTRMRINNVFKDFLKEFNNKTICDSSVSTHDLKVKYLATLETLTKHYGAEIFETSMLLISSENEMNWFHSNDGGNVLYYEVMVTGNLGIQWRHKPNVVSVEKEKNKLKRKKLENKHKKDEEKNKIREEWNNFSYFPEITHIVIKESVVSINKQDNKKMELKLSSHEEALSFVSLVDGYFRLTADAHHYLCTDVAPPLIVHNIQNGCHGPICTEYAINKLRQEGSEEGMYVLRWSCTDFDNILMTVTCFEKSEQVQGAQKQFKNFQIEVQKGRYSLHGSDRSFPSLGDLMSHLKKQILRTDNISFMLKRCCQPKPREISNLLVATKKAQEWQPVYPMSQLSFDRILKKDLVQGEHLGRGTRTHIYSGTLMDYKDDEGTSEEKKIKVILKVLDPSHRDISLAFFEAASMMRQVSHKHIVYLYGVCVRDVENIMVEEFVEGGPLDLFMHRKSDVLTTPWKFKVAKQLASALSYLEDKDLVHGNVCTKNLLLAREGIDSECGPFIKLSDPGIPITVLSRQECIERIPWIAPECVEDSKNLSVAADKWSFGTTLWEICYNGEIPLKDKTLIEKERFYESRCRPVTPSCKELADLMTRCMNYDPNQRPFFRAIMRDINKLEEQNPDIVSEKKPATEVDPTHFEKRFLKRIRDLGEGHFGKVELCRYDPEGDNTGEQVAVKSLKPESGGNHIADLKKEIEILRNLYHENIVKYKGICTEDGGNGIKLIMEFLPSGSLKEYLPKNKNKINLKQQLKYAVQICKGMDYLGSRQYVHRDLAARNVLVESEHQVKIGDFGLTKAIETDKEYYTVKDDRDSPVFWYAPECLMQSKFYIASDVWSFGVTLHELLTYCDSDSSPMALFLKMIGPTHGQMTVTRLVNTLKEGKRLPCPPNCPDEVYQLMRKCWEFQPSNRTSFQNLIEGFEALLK

| SMILES | JAK 1 (pKi) [1] | JAK 2 (pKi) [2] | Tyk 2 (pKi) [3] | Tall-1 (pIC50) [4] | JAK 3 (pKi) [5] | JAK3 (pKi)-JAK1 (pKi) [5] | Ki [1] [nM] | Ki [2] [nM] | Ki [3] [nM] | IC50 [4] [nM] | Ki [5] [nM] |
| --- | --- | --- | --- | --- | --- | --- | --- | --- | --- | --- | --- |
| C=CC(=O)N1CC(COc2nc(-c3ccc(O)cc3)nc3[nH]ncc23)C1C (stereo not drawn) [Compound 3-31] | E (a pKi value of 7 or below (Ki of 100 nM or above)) | E (a pKi value of 7 or below (Ki of 100 nM or above)) | E (a pKi value of 7 or below (Ki of 100 nM or above)) | B (a pIC50 value between 6.7 (included) and 7.5 (IC50 between 200 nM and 32 nM)) | A (a pKi value≥10 (Ki≤0.1 nM)) | A (a value of 3 or above) | – | – | – | – | – |
| COC1(COc2cc(-c3ccc(O)cc3)cc3[nH]ncc23)CN(C(=O)/C=C/CN(C)C)C1 [Compound 3-32] | – | – | – | – | – | A (a value of 3 or above) | > 100 | > 100 | > 100 | < 31.6 | 0.1 to 1 |
| C=CC(=O)N1CC(COc2cc(-c3ccc(O)cc3)cc3[nH]ncc23)(OC)C1 [Compound 3-33] | E (a pKi value of 7 or below (Ki of 100 nM or above)) | E (a pKi value of 7 or below (Ki of 100 nM or above)) | E (a pKi value of 7 or below (Ki of 100 nM or above)) | B (a pIC50 value between 6.7 (included) and 7.5 (IC50 between 200 nM and 32 nM)) | B (a pKi value between 9 and 10 (Ki between 1 nM and 0.1 nM)) | B (a value of 2.3 to 3) | – | – | – | – | – |
| C=CC(=O)N1CC(COc2nc(-c3ccc(O)c(Cl)c3)cc3[nH]ncc23)C1 [Compound 3-35] | – | – | – | – | – | A (a value of 3 or above) | > 100 | > 100 | > 100 | < 31.6 | 0.1 to 1 |
| CN(C)C/C=C/C(=O)N1CC(COc2nc(-c3ccc(O)c(F)c3)cc3[nH]ncc23)C1 [Compound 3-36] | – | – | – | – | – | A (a value of 3 or above) | > 100 | > 100 | > 100 | 31.6 to 200 | < 0.1 |
| C=CC(=O)N1CC(COc2nc(-c3ccc(O)c(F)c3)cc3[nH]ncc23)C1 [Compound 3-37] | – | – | – | – | – | A (a value of 3 or above) | > 100 | 10 to 100 | > 100 | < 31.6 | < 0.1 |
| C=CC(=O)N1CC(COc2nc(-c3ccc(O)c(Cl)c3)nc3[nH]ncc23)C1 [Compound 3-38] | – | – | – | – | – | A (a value of 3 or above) | > 100 | > 100 | > 100 | 31.6 to 200 | < 0.1 |
| C=CC(=O)N1CC(COc2nc(-c3ccc(O)c(F)c3)nc3[nH]ncc23)C1 [Compound 3-39] | – | – | – | – | – | A (a value of 3 or above) | > 100 | > 100 | > 100 | 31.6 to 200 | < 0.1 |
| CN(C)C/C=C/C(=O)N1CC(F)(COc2cc(-c3ccc(O)c(F)c3)cc3[nH]ncc23)C1 [Compound 3-40] | – | – | – | – | – | A (a value of 3 or above) | 0.1 to 1 | 10 to 100 | > 100 | < 31.6 | < 0.1 |
| C=CC(=O)N1CC(F)(COc2cc(-c3ccc(O)c(F)c3)cc3[nH]ncc23)C1 [Compound 3-41] | – | – | – | – | – | B (a value of 2.3 to 3) | 0.1 to 1 | 1 to 10 | > 100 | < 31.6 | 0.1 to 1 |
| CN(C)C/C=C/C(=O)N1CC(F)(COc2cc(-c3ccc(O)c(Cl)c3)cc3[nH]ncc23)C1 [Compound 3-42] | – | – | – | – | – | B (a value of 2.3 to 3) | 0.1 to 1 | 10 to 100 | > 100 | < 31.6 | 0.1 to 1 |
| C=CC(=O)N1CC(F)(COc2cc(-c3ccc(O)c(Cl)c3)cc3[nH]ncc23)C1 [Compound 3-43] | E (a pKi value of 7 or below (Ki of 100 nM or above)) | D (a pKi value between 7 and 8 (Ki between 100 nM and 10 nM)) | E (a pKi value of 7 or below (Ki of 100 nM or above)) | A (a pIC50 value≥7.5 (IC50≤32 nM)) | B (a pKi value between 9 and 10 (Ki between 1 nM and 0.1 nM)) | A (a value of 3 or above) | – | – | – | – | – |
| CN(C)C/C=C/C(=O)N1CC(F)(COc2nc(-c3ccc(O)cc3)cc3[nH]ncc23)C1 [Compound 3-44] | D (a pKi value between 7 and 8 (Ki between 100 nM and 10 nM)) | D (a pKi value between 7 and 8 (Ki between 100 nM and 10 nM)) | E (a pKi value of 7 or below (Ki of 100 nM or above)) | A (a pIC50 value≥7.5 (IC50≤32 nM)) | B (a pKi value between 9 and 10 (Ki between 1 nM and 0.1 nM)) | B (a value of 2.3 to 3) | – | – | – | – | – |
| C=CC(=O)N1CC(F)(COc2nc(-c3ccc(O)cc3)nc3[nH]ncc23)C1 [Compound 3-45] | – | – | – | – | – | A (a value of 3 or above) | > 100 | > 100 | > 100 | < 31.6 | 0.1 to 1 |
| C=CC(=O)N1CC(F)(COc2cc(-c3ccc(O)cc3)nc3[nH]ncc23)C1 [Compound 3-46] | – | – | – | – | – | A (a value of 3 or above) | > 100 | > 100 | > 100 | < 31.6 | < 0.1 |
| C=CC(=O)N1CC(F)(COc2nc(-c3ccc(O)c(Cl)c3)cc3[nH]ncc23)C1 [Compound 3-47] | – | – | – | – | – | B (a value of 2.3 to 3) | > 100 | 10 to 100 | > 100 | < 31.6 | 0.1 to 1 |
| CN(C)C/C=C/C(=O)N1CC(F)(COc2nc(-c3ccc(O)c(F)c3)cc3[nH]ncc23)C1 [Compound 3-48] | D (a pKi value between 7 and 8 (Ki between 100 nM and 10 nM)) | D (a pKi value between 7 and 8 (Ki between 100 nM and 10 nM)) | E (a pKi value of 7 or below (Ki of 100 nM or above)) | A (a pIC50 value≥7.5 (IC50≤32 nM)) | A (a pKi value≥10 (Ki≤0.1 nM)) | A (a value of 3 or above) | – | – | – | – | – |
| C=CC(=O)N1CC(F)(COc2nc(-c3ccc(O)c(F)c3)cc3[nH]ncc23)C1 [Compound 3-49] | – | – | – | – | – | B (a value of 2.3 to 3) | > 100 | 10 to 100 | > 100 | < 31.6 | 0.1 to 1 |
| CN(C)C/C=C/C(=O)N1CC(F)(COc2nc(-c3ccc(O)c(Cl)c3)nc3[nH]ncc23)C1 [Compound 3-50] | – | – | – | – | – | A (a value of 3 or above) | > 100 | > 100 | > 100 | 31.6 to 200 | 0.1 to 1 |
| CN(C)C/C=C/C(=O)N1CC(F)(COc2nc(-c3ccc(O)c(F)c3)nc3[nH]ncc23)C1 [Compound 3-51] | E (a pKi value of 7 or below (Ki of 100 nM or above)) | E (a pKi value of 7 or below (Ki of 100 nM or above)) | E (a pKi value of 7 or below (Ki of 100 nM or above)) | C (a pIC50 value between 6 and 6.7 (IC50 between 1 μM and 200 nM)) | B (a pKi value between 9 and 10 (Ki between 1 nM and 0.1 nM)) | A (a value of 3 or above) | – | – | – | – | – |
